Values after ≈ are worked out from the molar mass of the structure shown. Values joined by “and” are separate entries in the source; they are usually repeats but may differ in a detail not shown here. Equal entries are not always repeated. Where two headings read alike, the source gives them in different places.
Experiments:
[1] = Solubility of saturated solutions by HPLC at 25 °C; format: physicochemical
From the text: The filtrate was then passed through a 0.22 μm nylon membrane filter and subjected to HPLC analysis. Based on Wang’s report about the chromatographic parameters, modifications to the mobile phase ratio were made. The replicability of the results was ensured by performing each measurement in triplicate.

[2] = Solubility classification in representative solvents (Vogel protocol); format: physicochemical; conditions: 25 °C; for solubility: thermodynamic from solid
Protocol: This investigation details how to determine the solubility of terbinafine and its salts, guided by the experimental protocol in Vogel’s Textbook of Practical Organic Chemistry. Based on the Snyder polarity index values of the representative solvents, each solvent was tested for its ability to dissolve the target analytes. The solubility data was classified into three categories based on the observed extent of dissolution. […] The experimental procedures were performed at 25 °C and under ambient pressure.

Valsa malicola (V. mali) = experiment: In vitro fungicidal activity, mycelial (hyphae) growth inhibition on PDA; format: cell-based
[3] = tested on: Rhizoctonia solani (R. solani); experiment: microbe, parasite or virus in culture; format: cell-based
[4] = tested on: Botrytis cinerea (B. cinerea); experiment: In vitro fungicidal activity, mycelial (hyphae) growth inhibition on PDA; format: cell-based
[5] = tested on: Pyricularia oryzae (P. oryzae); experiment: microbe, parasite or virus in culture; format: cell-based
[6] = Critical micelle concentration by electrical conductivity; conditions: 25 °C
Protocol: The critical micelle concentrations (CMCs) of the TISs were measured using electrical conductivity at 25 °C, as shown in Figure S16.
The critical micelle concentrations (CMCs) of all the TISs were determined using an electrical conductivity meter (Leica Desktop Conductivity Meter DDSJ-308F, Shanghai Oustor Industrial Co., Ltd. Shanghai, China).

[7] = tested on: Alternaria solani (A. solani); experiment: In vitro fungicidal activity, mycelial (hyphae) growth inhibition on PDA; format: cell-based
[8] = Surface tension of saturated aqueous solutions, Du Noüy ring method; conditions: 25 °C
Protocol: This method involved adjusting the stage positioning of the solvent container such that a platinum ring could be immersed below the liquid interface or pulled through the meniscus. […] The maximum force was recorded as the surface tension of the solvent. To ensure accuracy, the platinum ring was thoroughly cleaned between each measurement through rinsing with double-distilled water and wiping it dry. The surface tension determination was performed in quadruplicate.

[9] = tested on: Fusarium graminearum (F. graminearum); experiment: microbe, parasite or virus in culture; format: cell-based
[10] = tested on: Pythium aphanidermatum (P. aphanidermatum); experiment: In vitro fungicidal activity, mycelial (hyphae) growth inhibition on PDA; format: cell-based; conditions: mean ± SD of three replicates
[11] = tested on: Phomopsis capsici (P. capsica); experiment: as above; format: cell-based; conditions: mean ± SD of three replicates
[12] = tested on: B. cinerea on cherry tomatoes; experiment: In vivo antifungal bioassay on cherry tomatoes; design: species or system Botrytis cinerea; conditions: 20 mg/L; for Diameter of infection (cm) 4 days: 4 days after treatment; for Diameter of infection (cm) 7 days: 7 days after treatment
[13] = test amount 0.1 g, Snyder polarity index 4.3
[14] = 50 mg/L, mean ± SD of three replicates
[15] = V. mali, read-out: EC50 (μmol/L)

## CN(C/C=C/C#CC(C)(C)C)Cc1cccc2ccccc12.O=C(O)c1ccco1 [TIS 5, (E)-N,6,6-trimethyl-N-(naphthalen-1-ylmethyl)hept-2-en-4-yn-1-aminium furan-2-carboxylate]
[1]; Table S1
  Solubility, n-Hexane: 1.02 µM
[1]; water
  water solubility: 5880 µM
[2]; test amount 0.1 g, Snyder polarity index 0.0
  Solubility in n-Hexane: − (“−” means insoluble in a 3 mL solvent, poor solubility)
[2]; test amount 0.1 g, Snyder polarity index 2.3
  Solubility in Toluene: + (“+” means soluble in a 1 mL solvent, good solubility)
[2]; test amount 0.1 g, Snyder polarity index 4.1
  Solubility in Chloroform: + (“+” means soluble in a 1 mL solvent, good solubility)
[2]; [13]
  Solubility in Ethyl acetate: + (“+” means soluble in a 1 mL solvent, good solubility)
  Solubility in Isopropanol: + (“+” means soluble in a 1 mL solvent, good solubility)
[2]; test amount 0.1 g, Snyder polarity index 5.1
  Solubility in Acetone: + (“+” means soluble in a 1 mL solvent, good solubility)
[2]; test amount 0.1 g, Snyder polarity index 6.2
  Solubility in Acetonitrile: + (“+” means soluble in a 1 mL solvent, good solubility)
[2]; test amount 0.1 g, Snyder polarity index 6.5
  Solubility in DMSO: + (“+” means soluble in a 1 mL solvent, good solubility)
[2]; test amount 0.1 g, Snyder polarity index 6.6
  Solubility in Methanol: + (“+” means soluble in a 1 mL solvent, good solubility)
[2]; test amount 0.1 g, Snyder polarity index 9.0
  Solubility in Water: − (“−” means insoluble in a 3 mL solvent, poor solubility)
Valsa malicola (V. mali); [14]
  Inhibition Rate at 50 mg/L (%) V. m: 100 ± 0%
Valsa malicola (V. mali); V. mali
  EC50 (mg/L): 1.49 mg/L
Valsa malicola (V. mali); V. mali, from EC50
  improvement of antifungal activity compared to terbinafine: 14%
Valsa malicola (V. mali); [15]
  EC50: 3.69 µmol/L
[3]
  EC50 (mg/L): 2.43 mg/L
[3]; 50 mg/L
  Inhibition Rate at 50 mg/L (%) R. s: 82.02 ± 0.91%
[3]; read-out: EC50
  EC50: 6020 nM
[4]; [14]
  Inhibition Rate at 50 mg/L (%) B. c: 100 ± 0%
[4]; B. cinerea
  EC50 (mg/L): 0.13 mg/L
[4]; B. cinerea, read-out: EC50 (μmol/L)
  EC50: 0.33 µmol/L
[5]; [14]
  Inhibition Rate at 50 mg/L (%) P. o: 96.68 ± 0.42%
[5]; P. oryzae
  EC50 (mg/L): 0.49 mg/L
[5]; P. oryzae, read-out: EC50
  EC50: 1220 nM
[6]
  critical micelle concentration (CMC): 0.66 mmol/L
[7]; [14]
  Inhibition Rate at 50 mg/L (%) A. s: 98.67 ± 0.61%
[7]; A. solani
  EC50 (mg/L): 0.08 mg/L
[7]; A. solani, from EC50
  improvement of antifungal activity compared to terbinafine: 20%
[7]; A. solani, read-out: EC50 (μmol/L)
  EC50: 0.2 µmol/L
[8]
  surface tension of the saturated aqueous solution: 51.26 mN·m^−1
[9]; [14]
  Inhibition Rate at 50 mg/L (%) F. g: 100 ± 0%
[9]; F. graminearum
  EC50 (mg/L): 0.11 mg/L
[9]; F. graminearum, read-out: EC50
  EC50: 270 nM
[10]
  Inhibition Rate at 50 mg/L (%) P. a: 71.96 ± 2.68%
[11]
  Inhibition Rate at 50 mg/L (%) P. c: 55.88 ± 1.89%
[12]
  Diameter of infection (cm) 4 days: 0.61 cm
  Diameter of infection (cm) 7 days: 0.74 cm

## CN(C/C=C/C#CC(C)(C)C)Cc1cccc2ccccc12 [Terbinafine]
[1]; water, thermodynamic from solid, read-out: water solubility
  solubility at 15 min: 5.22 µM (≈ 1.52 µg/mL)
[2]; DMSO, organic solvent or mixture, test amount 0.1 g, Snyder polarity index 6.5, read-out: Solubility in DMSO
  solubility: > 100 mg/mL
[2]; acetone, organic solvent or mixture, test amount 0.1 g, Snyder polarity index 5.1, read-out: Solubility in Acetone
  solubility: > 100 mg/mL
[2]; acetonitrile, organic solvent or mixture, test amount 0.1 g, Snyder polarity index 6.2, read-out: Solubility in Acetonitrile
  solubility: > 100 mg/mL
[2]; chloroform, organic solvent or mixture, test amount 0.1 g, Snyder polarity index 4.1, read-out: Solubility in Chloroform
  solubility: > 100 mg/mL
[2]; ethyl acetate, organic solvent or mixture, test amount 0.1 g, Snyder polarity index 4.3, read-out: Solubility in Ethyl acetate
  solubility: > 100 mg/mL
[2]; isopropanol, organic solvent or mixture, test amount 0.1 g, read-out: Solubility in Isopropanol
  solubility: > 100 mg/mL
[2]; methanol, organic solvent or mixture, test amount 0.1 g, Snyder polarity index 6.6, read-out: Solubility in Methanol
  solubility: > 100 mg/mL
[2]; n-hexane, organic solvent or mixture, test amount 0.1 g, Snyder polarity index 0.0, read-out: Solubility in n-Hexane
  solubility: > 100 mg/mL
[2]; toluene, organic solvent or mixture, test amount 0.1 g, Snyder polarity index 2.3, read-out: Solubility in Toluene
  solubility: > 100 mg/mL
[2]; various polar solvents, organic solvent or mixture, read-out: solubility in various polar solvents
  solubility: 100 mg/mL (≈ 343 mM)
[2]; water, test amount 0.1 g, Snyder polarity index 9.0, read-out: Solubility in Water
  solubility: < 33.3 mg/mL
Valsa malicola (V. mali); Cytospora schulzeri, 50 mg/L, mean ± SD of three replicates, read-out: Inhibition Rate at 50 mg/L (%) V. m
  inhibition at 50 µg/mL: 100%
Valsa malicola (V. mali); V. mali, read-out: EC50 (mg/L)
  EC50: 1.25 mg/L
Valsa malicola (V. mali); [15]
  EC50: 4.28 µmol/L
[3]; Rhizoctonia solani
  EC50: 1.73 µg/mL and 5.94 µM
[3]; Rhizoctonia solani, 50 mg/L, read-out: Inhibition Rate at 50 mg/L (%) R. s
  inhibition at 50 µg/mL: 84.21 ± 0.53%
[4]; Botrytis cinerea, 50 mg/L, mean ± SD of three replicates, read-out: Inhibition Rate at 50 mg/L (%) B. c
  inhibition at 50 µg/mL: 100%
[4]; Botrytis cinerea, B. cinerea, read-out: EC50 (mg/L)
  EC50: 0.1 mg/L
[4]; Botrytis cinerea, B. cinerea, read-out: EC50 (μmol/L)
  EC50: 0.34 µmol/L
[5]; Pyricularia oryzae, P. oryzae
  EC50: 0.28 µg/mL and 950 nM
[5]; Pyricularia oryzae, read-out: Inhibition Rate at 50 mg/L (%) P. o, 50 mg/L, mean ± SD of three replicates
  inhibition at 50 µg/mL: 99.64 ± 0.36%
[7]; Alternaria solani, 50 mg/L, mean ± SD of three replicates, read-out: Inhibition Rate at 50 mg/L (%) A. s
  inhibition at 50 µg/mL: 100%
[7]; Alternaria solani, A. solani, read-out: EC50 (mg/L)
  EC50: 0.07 mg/L
[7]; Alternaria solani, A. solani, read-out: EC50 (μmol/L)
  EC50: 0.25 µmol/L
[8]
  surface tension of the saturated aqueous solution: 59.92 mN·m^−1
[9]; Fusarium graminearum, F. graminearum
  EC50: 0.07 µg/mL and 250 nM
[9]; Fusarium graminearum, read-out: Inhibition Rate at 50 mg/L (%) F. g
  inhibition at 50 µg/mL: 100%
[10]; Pythium aphanidermatum, 50 mg/L, read-out: Inhibition Rate at 50 mg/L (%) P. a
  inhibition at 50 µg/mL: 68.2 ± 1.87%
[11]; Diaporthe capsici, 50 mg/L, read-out: Inhibition Rate at 50 mg/L (%) P. c
  inhibition at 50 µg/mL: 48.75 ± 0.45%
[12]
  Diameter of infection (cm) 4 days: 0.89 cm
  Diameter of infection (cm) 7 days: 1.07 cm

— paper PMC10303384, “The Effect of Terbinafine and Its Ionic Salts on Certain Fungal Plant Pathogens” (Molecules, 2023)
